Reference: patent publication US20090305980A1, “Methods and Compositions Related to TR4” (UNIVERSITY OF ROCHESTER, priority 2006, published 2009)

Tests used:
wt MEFs = test: Cellular ROS levels by flow cytometry in wt MEFs; assay type: cell-based, mouse
Description: (§1) MEFs from wt and TR4 KO were treated with 200 μM H2O2 for 30 min in the presence/absence of 100 nM of α-tocopherol, and the cellular ROS levels were then measured by flow cytometric analysis. The relative ROS levels were calculated by comparing with untreated MEFs from wt and TR4 KO independently.
Replicative senescence has been employed as a cellular model for aging and it occurs primarily in response to oxidative DNA damage (Campisi, J. et al. (2005) Cell, 120: 513-522). Wt MEFs grow well for approximately 2-3 doublings (P2-3) before decreasing in proliferation, and after 8-10 doublings, the cell senescence occurs. In contrast, TR4 KO MEFs proliferation drastically decline after P4 (FIG. 4A). […] The amounts of cellular ROS in MEFs were determined by flow cytometry using DCFH-DA. […] When MEFs were exposed to H2O2 and measured cellular ROS levels, the amounts of fluorescence in both in wt and TR4 KO increased after H2O2 treatment; TR4 KO MEFs accumulated more ROS than wt MEFs. […]
To determine if TR4 is a mediator for non-enzymatic antioxidants, including vitamin C, vitamin E, β-carotene, and selenium, to suppress ROS production in the cells, cellular ROS levels are examined in LMWA-treated MEFs to antagonize oxidative stress. MEFs from TR4 KO and wt are treated with LMWA with/without H2O2 oxidative stress challenge as ROS levels are measured. […]

TR4 KO MEFs = test: Cellular ROS levels by flow cytometry in TR4 KO MEFs; assay type: cell-based, mouse
Description: as §1
Replicative senescence has been employed as a cellular model for aging and it occurs primarily in response to oxidative DNA damage (Campisi, J. et al. (2005) Cell, 120: 513-522). Wt MEFs grow well for approximately 2-3 doublings (P2-3) before decreasing in proliferation, and after 8-10 doublings, the cell senescence occurs. In contrast, TR4 KO MEFs proliferation drastically decline after P4 (FIG. 4A). ROS contribute to cells senescence, and how cells respond to oxidative stress would determine the life span. The amounts of cellular ROS in MEFs were determined by flow cytometry using DCFH-DA. […] When MEFs were exposed to H2O2 and measured cellular ROS levels, the amounts of fluorescence in both in wt and TR4 KO increased after H2O2 treatment; TR4 KO MEFs accumulated more ROS than wt MEFs.
To test if TR4 is involved in low molecular weight antioxidant (LMWA), such as vitamin E anti-oxidant effects, fibroblasts from TR4 KO and wt were challenged with 250 μM H2O2 in the presence of 100 nM α-tocopherol and VES.
To determine if TR4 is a mediator for non-enzymatic antioxidants, including vitamin C, vitamin E, β-carotene, and selenium, to suppress ROS production in the cells, cellular ROS levels are examined in LMWA-treated MEFs to antagonize oxidative stress. MEFs from TR4 KO and wt are treated with LMWA with/without H2O2 oxidative stress challenge as ROS levels are measured. The ones that lose its anti-oxidant activity in KO MEFs but not wt MEFs are the candidates. […] Therefore, TR4 is mediated by some LMWAs, such as vitamin E, to suppress cellular ROS production. Herein, the anti-ROS effects are compared on TR4 KO vs wt MEFs in response to other LMWAs. The focus is on how TR4 regulates vitamin E and the other LMWA that lost anti-ROS response in TR4 KO MEFs.

Cc1c(C)c2c(c(C)c1O)CC[C@@](C)(CCC[C@H](C)CCC[C@H](C)CCCC(C)C)O2 [vitamin E, α-tocopherol] was tested, and the “intrinsic and exogenous ROS production” value (wt MEFs; wt MEFs, 10^−7 M vitamin E) was “can reduce”, the “ROS (vitamin E-mediated anti-oxidant effect)” value (wt MEFs; wt fibroblasts, 250 μM H2O2, 100 nM α-tocopherol and VES) was “reduction of ROS” and the “intrinsic and exogenous ROS production” value (TR4 KO MEFs; KO MEFs, 10^−7 M vitamin E) was “not”. For the same compound, the “vitamin E anti-ROS effects (relative ROS levels)” value (TR4 KO MEFs; TR4KO MEFs, 200 μM H2O2 for 30 min, 100 nM α-tocopherol) was “loss of vitamin E anti-ROS effects” and the “ROS (vitamin E-mediated anti-oxidant effect)” value (TR4 KO MEFs; TR4 KO fibroblasts, 250 μM H2O2, 100 nM α-tocopherol and VES) was “lost the vitamin E-mediated anti-oxidant effect”.
